Reference: ChEMBL document CHEMBL3751841, “Synthesis of carboxyimidamide-substituted benzo[c][1,2,5]oxadiazoles and their analogs, and evaluation of biological activity against Leishmania donovani” (Medchemcomm, 2015)

How the values were obtained:
Leishmania donovani [1] = test: Antileishmanial activity against Leishmania donovani MHOM/SD/1962/1S-Cl2d axenic amastigotes assessed as inhibition of parasite growth at 50 uM after 24 hrs by alamar blue staining based fluorescent viability microplate assay; assay type: functional; settings: read-out: GI
Leishmania donovani [2] = test: Antileishmanial activity against Leishmania donovani MHOM/SD/1962/1S-Cl2d axenic amastigotes assessed as inhibition of parasite growth at 15 uM after 24 hrs by alamar blue staining based fluorescent viability microplate assay; assay type: functional; settings: read-out: GI
Leishmania donovani [3] = test: Antileishmanial activity against Leishmania donovani MHOM/SD/1962/1S-Cl2d axenic amastigotes assessed as inhibition of parasite growth at 5 uM after 24 hrs by alamar blue staining based fluorescent viability microplate assay; assay type: functional; settings: read-out: GI
Leishmania donovani [4] = test: Antileishmanial activity against Leishmania donovani MHOM/SD/1962/1S-Cl2d axenic amastigotes assessed as inhibition of parasite growth after 24 hrs by alamar blue staining based fluorescent viability microplate assay; assay type: functional, organism-based
Leishmania donovani [5] = test: Antileishmanial activity against luciferase expressing Leishmania donovani intracellular amastigotes infected in human THP1 cells assessed as inhibition of parasite growth after 48 hrs by Bright-glo luciferase assay; assay type: functional, organism-based; settings: THP-1, 48 h
[6] = Cytotoxicity against human THP1 cells assessed as reduction in cell viability after 48 hrs by alamar blue dye based assay; settings: THP-1, 48 h
[7] = Cytotoxicity against mouse NIH/3T3 cells assessed as reduction in cell viability after 48 hrs by alamar blue dye based assay; settings: NIH3T3, 48 h
[8] = Selectivity index, ratio of EC50 for human THP1 cells to EC50 for Leishmania donovani axenic amastigotes; assay type: toxicity, cell-based, THP-1; settings: THP1 cells versus Leishmania donovani axenic amastigotes, read-out: Ratio EC50
[9] = Selectivity index, ratio of EC50 for mouse NIH/3T3 cells to EC50 for Leishmania donovani […] amastigotes; assay type: toxicity, cell-based; settings: read-out: Ratio EC50
Leishmania donovani [10] = test: Antileishmanial activity against luciferase expressing Leishmania donovani intracellular amastigotes infected in human THP1 cells assessed as inhibition of parasite growth at 5 uM after 48 hrs by Bright-glo luciferase assay; assay type: functional; settings: THP-1, 48 h, read-out: GI
Leishmania donovani [11] = test: Antileishmanial activity against Leishmania donovani MHOM/SD/1962/1S-Cl2d axenic amastigotes assessed as inhibition of parasite growth at 1 uM after 24 hrs by alamar blue staining based fluorescent viability microplate assay; assay type: functional; settings: read-out: GI
Leishmania donovani [12] = test: Antileishmanial activity against luciferase expressing Leishmania donovani intracellular amastigotes infected in human THP1 cells assessed as inhibition of parasite growth at 1 uM after 48 hrs by Bright-glo luciferase assay; assay type: functional; settings: THP-1, 48 h, read-out: GI

Structure (SMILES)	inhibition of growth at 50 µM (Leishmania donovani [1])	inhibition of growth at 15 µM (Leishmania donovani [2])	other results
N/C(=N\OC(=O)c1ccccc1)c1ccc2nonc2c1	51.1%	–	–
N/C(=N\OC(=O)Nc1ccc(Cl)cc1)c1ccc2nonc2c1	44%	–	–
COc1ccccc1NC(=O)O/N=C(\N)c1ccc2nonc2c1	38%	–	–
N=C(NOC(=O)Nc1cccc(Cl)c1)c1ccc2nonc2c1	94.8%	87.2%	inhibition of growth at 5 µM (Leishmania donovani [3]): 43.4%; EC50 (Leishmania donovani [4]): 4.2 µM; EC50 (Leishmania donovani [5]): 5.92 µM; EC50 [6]: 79.9 µM; EC50 [7]: > 300 µM; selectivity ratio [8]: 19; selectivity ratio [9]: > 71.4; inhibition of growth at 5 µM (Leishmania donovani [10]): 33.1%
N/C(=N\OC(=O)Nc1ccccc1)c1ccc2sccc2c1	97.9%	35.2%	–
COc1ccc(NC(=O)O/N=C(\N)c2ccc3nonc3c2)cc1	46%	–	–
N/C(=N\OC(=O)Nc1ccccc1)c1ccc2c(c1)OCO2	93%	33.9%	–
N/C(=N\OC(=O)Nc1ccccc1)c1ccc2[nH]cnc2c1	72%	–	–
N/C(=N\OC(=O)Nc1cccc(C(F)(F)F)c1)c1ccc2nonc2c1	51.4%	–	–
N/C(=N\OC(=O)Nc1ccc(C(F)(F)F)cc1)c1ccc2nonc2c1	51.7%	–	–
N/C(=N\OC(=O)Nc1ccccc1C(F)(F)F)c1ccc2nonc2c1	42.1%	–	–
N/C(=N\OC(=O)Nc1ccccc1)c1ccc2ccccc2c1	98.8%	24.9%	–
N/C(=N\OC(=O)Nc1ccccc1)c1ccccc1	78.4%	5.4%	–
N/C(=N\OC(=O)Cc1ccccc1)c1ccc2nonc2c1	22.4%	–	–
C[C@@H]1[C@H](O)[C@@H](C)/C=C/C=C/C=C/C=C/C=C/C=C/C=C/[C@H](O[C@@H]2O[C@H](C)[C@@H](O)[C@H](N)[C@@H]2O)C[C@@H]2O[C@](O)(C[C@@H](O)C[C@@H](O)[C@H](O)CC[C@@H](O)C[C@@H](O)CC(=O)O[C@H]1C)C[C@H](O)[C@H]2C(=O)O [AMPHOTERICIN B]	–	–	EC50 (Leishmania donovani [5]): 0.11 µM; EC50 [6]: 2.1 µM; EC50 [7]: 2.2 µM; inhibition of growth at 1 µM (Leishmania donovani [11]): 99.7%; inhibition of growth at 1 µM (Leishmania donovani [12]): > 90%
COc1cccc(NC(=O)O/N=C(\N)c2ccc3nonc3c2)c1	71.4%	31.8%	–
Cc1cccc(NC(=O)O/N=C(\N)c2ccc3nonc3c2)c1	67.2%	44.6%	–
N/C(=N\OC(=O)Nc1ccccc1Cl)c1ccc2nonc2c1	29.6%	–	–
N/C(=N\OC(=O)Oc1ccccc1)c1ccc2nonc2c1	26.5%	–	–
N/C(=N\OC(=O)Nc1ccccc1)c1ccc2occc2c1	95.2%	48%	–
O=C(Nc1ccccc1)ONC(=O)c1ccc2nonc2c1	96.2%	68.2%	inhibition of growth at 5 µM (Leishmania donovani [3]): 54.6%; EC50 (Leishmania donovani [4]): 8.1 µM; EC50 [6]: 33.7 µM; EC50 [7]: > 300 µM; selectivity ratio [8]: 4.2; selectivity ratio [9]: > 37; inhibition of growth at 5 µM (Leishmania donovani [10]): 19.9%
Cc1ccccc1NC(=O)O/N=C(\N)c1ccc2nonc2c1	42%	–	–
Cc1ccc(NC(=O)O/N=C(\N)c2ccc3nonc3c2)cc1	64.1%	–	–
N=C(NOC(=O)Nc1ccccc1)c1ccc2nonc2c1	70.1%	24.2%	–
N/C(=N\OC(=O)NC1CCCCC1)c1ccc2nonc2c1	43.9%	–	–
N/C(=N\OC(=O)Nc1ccccc1)c1ccc2[nH]ccc2c1	91.9%	21.6%	–
